Data published in patent US20070142480A1, “Alleviation of pain in osteoarthritis by means of intra-articular implantation of perfluorodecalin” (priority 2005, published 2007).

Assays:
[1] = tested on: patients with symptomatic knee OA; experiment: single group, open-label study of weekly intra-articular injections in outpatients with symptomatic knee OA; assay type: in vivo, human; conditions: for WOMAC score: baseline 5±2, p<0.001
Method: The efficacy of treatment was determined by a validated clinical test method and side effects recorded. This was a single group, open-label study, including outpatients of both sexes, aged between 18 and 85 years, with symptomatic knee OA. All patients (25) underwent weekly intra-articular injections of perfluorodecalin for 5 consecutive weeks and were followed-up for 10 additional weeks. The safety and tolerability profile (primary end-point) was assessed by adverse event reporting. The secondary endpoint was efficacy evaluated by changes in the Western Ontario and McMaster Universities (WOMAC) score vs. baseline. Patient and physician satisfaction were also recorded.

[2] = cited from earlier work
[3] = cited from earlier work; remark: listed apart in the source

FC1(F)C(F)(F)C(F)(F)C2(F)C(F)(F)C(F)(F)C(F)(F)C(F)(F)C2(F)C1(F)F (centres unmarked) [Perfluorodecalin]
serious treatment-related adverse events ([1]; 25 patients, 5 weekly intra-articular injections, 10 additional weeks follow-up): no serious treatment-related adverse events were reported | most frequent adverse event: pain at the injection site ([1]; 25 patients, weekly intra-articular injections for 5 consecutive weeks): 10 % of the injections | duration of relief of pain, on average ([1]; after intra-articular injection): one week | carry-over effect after the last injection ([1]; based on sustained improvements in WOMAC score and subscores): at least 3 weeks | WOMAC score ([1]; end of the injection series, week 6): 2±1.5 | WOMAC subscore 'pain' ([1]; from week 4): significantly reduced | WOMAC subscore 'physical function' ([1]; from week 6): significantly reduced | WOMAC subscore 'stiffness' ([1]; from week 6): significantly reduced | safety and tolerability profile ([1]; intra-articular, adverse event reporting): generally well tolerated | WOMAC score ([1]; within the first 2 weeks of treatment): 3±2 | solubility in water and in traditional organic solvents [2]: insoluble | Vapor pressure at 37° C. ([3]; 37° C.): 14 mm Hg | CO2 solubility [3]: 1400 mL/L | O2 solubility [3]: 490 mL/L
